Test results reported in patent US20100048462A1, “TRUNCATED PTH PEPTIDES WITH A CYCLIC CONFORMATION” (Zealand Pharma A/S, priority 2006, published 2010).
Bridge positions count the residues as written; N and C are the ends. Square brackets hold non-standard residues; d marks the D form. Peptide text beside a SMILES is read from it. hArg = N=C(N)NCCCC[C@H](N)C(=O)O; Ac5c = NC1(C(=O)O)CCCC1; Dab = NCC[C@H](N)C(=O)O; Aib = CC(C)(N)C(=O)O

Tests used:
Saos-2 PTH1R [1] = target: T1, Saos-2 PTH1R (Homo sapiens, UniProt Q03431); assay: cAMP-efficacy assay in Saos-2 cells; type: cell-based; conditions: for potency compared to linear / non-stabilized counterparts, in words / EC50 / pEC50 ± SEM: cAMP; for EC50 / pEC50 ± SEM: 100 μM IBMX, 37° C. 15 min, suffix of label = salt tested; for Emax ± SEM: relative effect to the control (SEQ ID NO: 32)
T1 construct: endogenous in cells; host or cells: Saos-2
T1 sequence (Q03431 27-593): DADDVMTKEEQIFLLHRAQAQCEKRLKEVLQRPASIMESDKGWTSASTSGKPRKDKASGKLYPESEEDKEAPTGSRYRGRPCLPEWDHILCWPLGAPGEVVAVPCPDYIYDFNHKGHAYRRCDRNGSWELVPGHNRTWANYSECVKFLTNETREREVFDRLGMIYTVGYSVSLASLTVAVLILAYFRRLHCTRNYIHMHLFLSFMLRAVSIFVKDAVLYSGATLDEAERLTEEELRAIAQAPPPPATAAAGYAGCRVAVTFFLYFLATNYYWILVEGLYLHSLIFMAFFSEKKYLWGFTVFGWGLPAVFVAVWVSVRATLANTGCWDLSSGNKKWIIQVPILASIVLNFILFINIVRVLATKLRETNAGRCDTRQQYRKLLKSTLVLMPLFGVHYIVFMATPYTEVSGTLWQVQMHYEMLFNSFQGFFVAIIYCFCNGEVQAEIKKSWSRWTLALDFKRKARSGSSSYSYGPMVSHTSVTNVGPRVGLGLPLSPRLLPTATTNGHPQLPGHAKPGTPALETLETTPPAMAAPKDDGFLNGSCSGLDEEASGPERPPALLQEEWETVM
How it was run: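 cAMP accumulation was assayed by FlashPlate after 15 min peptide stimulation at 37 °C of Saos-2 cells in Tyrode's buffer containing 100 μM IBMX and 0.1% BSA, with the reaction stopped by ice-cold HCl. Variable-slope logistic fitting gave EC50/pEC50, Hill coefficient and Emax, with single or triplicate points.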

CYP2D6 [2] = target: T2, CYP2D6 (Homo sapiens, UniProt P10635); assay: CYP2D6 inhibition in pooled human liver microsomes; type: in vitro ADME; design: Pooled human liver microsomes (HLM, final concentration 0.05 mg protein/mL); tissue BD Biosciences 452161; host or cells: pooled human liver microsomes; conditions: 10 μM compound, dextrorphan formation rate
Procedure: Stock solutions of the test compounds (1 mM) were prepared in 50% isopropanol or 20% DMSO. Pooled human liver microsomes (HLM, final concentration 0.05 mg protein/mL) were mixed with phosphate buffer (0.1 M potassium phosphate, pH 7.4), CYP2D6 substrate (dextrometrorphan, 5 μM final concentration) and test compound (10 μM), quinidine (0.5 μM) or vehicle (0.2% DMSO or 0.5% isopropanol). The mixture was preincubated for 5 min at 37° C. prior to initiation of the reaction addition of a NADPH regenerating mixture (Final concentration: 1.25 mM NADP^+, 3.3 mM Glucose-6-phosphate, 3.3 mM MgCL2 and 0.4 U/mL glucose-6-phosphat dehydrogenase). After 5 minutes the reaction was stopped by addition of 0.25 volume stop reagent (94% acetonitrile, 6% acetic acid). Each experiment was performed in duplicate or triplicate.
The quantification of CYP2D6 product (dextrorphan) was performed by LC/MS/MS. After centrifugation for 5 min at 10.000 g, 40 μL of the supernatant was injected onto a C8 RP-HPLC column (XterraMS, C8, […], 50×2.1 mm). Dextrorphan was eluted by a linear gradient from 0 to 90% acetonitrile in 0.1% formic acid over 4 min using a flow rate of 0.15 ml/min. The concentration of dextrorphan in the reaction mixture was estimated from the peak area of the MS/MS transition (m/z 258.1>199) using an external calibration curve (Table 8).
The CYP2D6 activity in HLM was calculated as the metabolite formation rate: […]
Where, v is the formation rate, [metabolite] is the detected concentration of dextrorphan (pmol/mL) at the time (t, min) and [protein] is the protein concentration (mg/mL) in the reaction mixture. The influence of the test compounds on the CYP2D6 activity was calculated as % of the activity measured when incubated with the vehicle. The effect of CYP2D6 inhibitor (quinidine) was included as inhibition control within each batch analysis. A reduction in CYP2D6 activity to less than 70% of the vehicle control was considered significant.

CYP2D6 [3] = target: T2, CYP2D6; assay: cell-based or functional assay
Saos-2 PTH1R [4] = target: Saos-2 PTH1R (UniProt Q03431); assay: cell-based or functional assay

T2 sequence (P10635 whole entry): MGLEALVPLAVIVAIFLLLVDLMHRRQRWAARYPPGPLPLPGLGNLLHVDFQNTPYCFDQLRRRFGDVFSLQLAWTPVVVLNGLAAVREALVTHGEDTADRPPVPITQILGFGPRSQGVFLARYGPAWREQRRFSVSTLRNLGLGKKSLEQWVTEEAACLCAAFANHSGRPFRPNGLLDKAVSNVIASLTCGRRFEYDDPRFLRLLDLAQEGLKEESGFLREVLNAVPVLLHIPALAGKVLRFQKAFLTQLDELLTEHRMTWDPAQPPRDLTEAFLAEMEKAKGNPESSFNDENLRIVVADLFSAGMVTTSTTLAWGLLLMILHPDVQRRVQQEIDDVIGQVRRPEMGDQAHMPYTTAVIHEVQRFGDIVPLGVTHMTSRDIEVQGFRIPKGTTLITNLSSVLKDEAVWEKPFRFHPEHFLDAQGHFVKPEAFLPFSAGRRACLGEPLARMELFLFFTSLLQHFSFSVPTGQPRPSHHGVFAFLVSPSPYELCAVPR

CC[C@H](C)[C@H](NC(=O)[C@H](CCC(=O)O)NC(=O)C(C)(C)NC(=O)[C@@H](NC(=O)C1(N)CCCC1)C(C)C)C(=O)N[C@@H](CCC(N)=O)C(=O)N[C@@H](CC(C)C)C(=O)N[C@@H](CCSC)C(=O)N[C@@H](Cc1c[nH]cn1)C(=O)N[C@@H](CC(N)=O)C(=O)N[C@@H](CC(C)C)C(=O)NCC(=O)N[C@H]1CCCCNC(=O)C[C@@H](C(N)=O)NC(=O)[C@H](CC(N)=O)NC(=O)[C@H](CC(C)C)NC(=O)[C@H](Cc2c[nH]cn2)NC1=O [SEQ ID NO: 34] (H-[Ac5c]V[Aib]EIQLMHNLGKHLND-NH2; lactam 13-17)
potency compared to linear / non-stabilized counterparts, in words (Saos-2 PTH1R [1]): significantly higher potency | EC50 (Saos-2 PTH1R [1]): 214 nM | potency compared to linear / non-stabilized counterparts, in words (Saos-2 PTH1R [1]; listed as 34): increased potencies | potency compared to linear / non-stabilized counterparts, in words (Saos-2 PTH1R [1]; listed as SEQ ID NO:34): strikingly higher potency | Emax ± SEM (Saos-2 PTH1R [1]): 1.12 ± 0.09 | CYP2D6 activity (% of vehicle) (CYP2D6 [2]): 107 % of vehicle

CC[C@H](C)[C@H](NC(=O)[C@H](CCC(=O)O)NC(=O)[C@H](CO)NC(=O)[C@@H](NC(=O)[C@@H](N)CO)C(C)C)C(=O)N[C@@H](CCC(N)=O)C(=O)N[C@@H](CC(C)C)C(=O)N[C@@H](CCSC)C(=O)N[C@@H](Cc1c[nH]cn1)C(=O)N[C@@H](CC(N)=O)C(=O)N[C@@H](CC(C)C)C(=O)NCC(=O)N[C@H]1CCCCNC(=O)C[C@@H](C(N)=O)NC(=O)[C@H](CC(N)=O)NC(=O)[C@H](CC(C)C)NC(=O)[C@H](Cc2c[nH]cn2)NC1=O [SEQ ID NO: 36]
pEC50 ± SEM (Saos-2 PTH1R [1]): inactive | CYP2D6 activity (% of vehicle) (CYP2D6 [2]): 79 % of vehicle

CC[C@H](C)[C@H](NC(=O)[C@H](CCC(=O)O)NC(=O)[C@H](CO)NC(=O)[C@@H](NC(=O)[C@@H](N)CO)C(C)C)C(=O)N[C@@H](CCC(N)=O)C(=O)N[C@@H](CC(C)C)C(=O)N[C@@H](CCSC)C(=O)N[C@@H](Cc1c[nH]cn1)C(=O)N[C@@H](CC(N)=O)C(=O)N[C@@H](CC(C)C)C(=O)NCC(=O)N[C@@H](CCCCN)C(=O)N[C@@H](Cc1c[nH]cn1)C(=O)N[C@@H](CC(C)C)C(=O)N[C@@H](CC(N)=O)C(=O)N[C@@H](CO)C(N)=O [SEQ ID NO: 37, reference compound]
pEC50 ± SEM (Saos-2 PTH1R [1]): inactive | CYP2D6 activity (% of vehicle) (CYP2D6 [2]): 41 % of vehicle

CC[C@H](C)[C@H](NC(=O)[C@H](CCC(=O)O)NC(=O)C(C)(C)NC(=O)[C@@H](NC(=O)C1(N)CCCC1)C(C)C)C(=O)N[C@@H](CCC(N)=O)C(=O)N[C@@H](CC(C)C)C(=O)N[C@@H](CC(C)C)C(=O)N[C@@H](Cc1c[nH]cn1)C(=O)N[C@@H](CCC(N)=O)C(=O)N[C@@H](CCCCNC(=N)N)C(=O)N[C@@H](C)C(=O)N[C@H]1CCNC(=O)C[C@@H](C(N)=O)NC(=O)[C@H](CC(N)=O)NC(=O)[C@H](CC(C)C)NC(=O)[C@H](Cc2c[nH]c3ccccc23)NC1=O [SEQ ID NO: 41, H-Ac5c-Val-Aib-Glu-Ile-Gln-Leu-Leu-His-Gln-Har-Ala-Dab( )-Trp-Leu-Asn-Asp( )-NH2] (H-[Ac5c]V[Aib]EIQLLHQ[hArg]A[Dab]WLND-NH2; lactam 13-17 (inferred))
EC50 (Saos-2 PTH1R [1]): 64.6 nM | Emax ± SEM (Saos-2 PTH1R [1]): 0.99 ± 0.02 | CYP2D6 activity (% of vehicle) (CYP2D6 [2]): 82 % of vehicle

H-Ac5c-Val-Aib-Glu-Ile-Gln-Leu-Met-His-Gln-Har-Ala-Glu( )-Trp-Leu-Asn-Lys( )-NH2 (peptide)
CYP2D6 activity (% of vehicle), dextrorphan formation rate in human liver microsomes, 10 µM peptide (CYP2D6 [3]): 99 % of vehicle | Emax, cAMP efficacy assay in Saos-2 cells (8T, trifluoroacetate salt) (relative to control (SEQ ID NO: 32)) (Saos-2 PTH1R [4]): 1.07 | pEC50, cAMP efficacy assay in Saos-2 cells (8T, trifluoroacetate salt) (Saos-2 PTH1R [4]): 7.94 -log(M)

H-Ac5c-Val-Aib-Glu-Ile-Gln-Leu-Met-His-Gln-Har-Ala-Lys( )-Trp-Leu-Asn-Asp( )-OH (peptide)
CYP2D6 activity (% of vehicle), dextrorphan formation rate in human liver microsomes, 10 µM peptide (CYP2D6 [3]): 89 % of vehicle | Emax, cAMP efficacy assay in Saos-2 cells (4T, trifluoroacetate salt) (relative to control (SEQ ID NO: 32)) (Saos-2 PTH1R [4]): 1.11 | pEC50, cAMP efficacy assay in Saos-2 cells (4T, trifluoroacetate salt) (Saos-2 PTH1R [4]): 7.42 -log(M)

H-Ser-Val-Ser-Glu-Ile-Gln-Leu-Met-His-Asn-Leu-Gly-Lys( )-His-Leu-Asn-Asp( )-NH2 (peptide)
CYP2D6 activity (% of vehicle), dextrorphan formation rate in human liver microsomes, 10 µM peptide (CYP2D6 [3]): 79 % of vehicle

H-Ser-Val-Ser-Glu-Ile-Gln-Leu-Met-His-Asn-Leu-Gly-Lys-His-Leu-Asn-Ser-NH2 (peptide)
CYP2D6 activity (% of vehicle), dextrorphan formation rate in human liver microsomes, 10 µM peptide (CYP2D6 [3]): 41 % of vehicle
